From patent US20120015390A1, “Methods for the Detection and Treatment of Aberrant Prion Disease” (PROTEA BIOPHARMA N.V., priority 2009, published 2012) come the findings set out here.

One assay concerns NADH oxidase. It counts as cell-based.
The test system of assay [1] is aberrant membrane NADH oxidase. It counts as cell-based.
For another assay, the system named is NADH-oxidase. Particulars: in vivo.

Where “and” joins values, the source holds several entries; their conditions need not be identical. Identical values can stand only once.

With Heparin, in the assay on NADH oxidase, the CPM was 17740 CPM and 15303 CPM and 14082 CPM and 10372 CPM and 9192 CPM; the “chemiluminescence response after addition of substance and hypotonic NADH” value is “significant concentration-dependent increase”; the “chemiluminescence response after addition of substance and isotonic NADH” value is “not observed”.
As to HgCl2, the “formation of cell surface associated aberrant NADH oxidase” value in the assay with NADH oxidase was “induces the formation of cell surface associated aberrant NADH oxidase”. Further, in assay [1], the “CPM NADH hypotoon” value came out at 18 CPM, the “CPM NADH isotoon” value came out at 101 CPM, the CPM iso/hypo was 5.61 and the “induction of aberrant NADH-oxidase (higher counts under isotonic conditions)” value (shortened to “induction of aberrant NADH-oxidase”) is listed as “suggest induction of aberrant NADH-oxidase”.
For `[Cl][Cd][Cl]` [CdCl2], in assay [1], the “CPM NADH hypotoon” value is given as 376 CPM, the “CPM NADH isotoon” value turned out to be 114 CPM and the CPM iso/hypo is 0.30.
For `C[CH2][Hg][S]c1ccccc1C(=O)[O-].[Na+]` [Thimerosal] the same measures were 3338 CPM, 2380 CPM and 0.71.
Regarding `O=[N+]([O-])[O-].O=[N+]([O-])[O-].[Pb+2]` [Pb(NO3)2], in assay [1], the “CPM NADH hypotoon” value was 817 CPM, the “CPM NADH isotoon” value was determined as 1402 CPM, the CPM iso/hypo is recorded as 1.71 and the “induction of aberrant NADH-oxidase” value is “suggest induction of aberrant NADH-oxidase”.
Regarding `C[S+](C)[O-]` [DMSO], the “isotonic NADH induced lucigenin-dependent chemiluminescence in urine” value with NADH-oxidase is “increases”. For the same compound, in the assay with NADH oxidase, the “chemiluminescence response after addition of substance and hypotonic NADH” value is “significant concentration-dependent increase”; the “chemiluminescence response after addition of substance and isotonic NADH” value is “not observed”.
Turning to `[Cl][Ni][Cl]` [NiCl2], in assay [1], the “CPM NADH hypotoon” value worked out at 860 CPM, the “CPM NADH isotoon” value was determined as 913 CPM, the CPM iso/hypo is reported as 1.06 and the “induction of aberrant NADH-oxidase” value is recorded as “suggest induction of aberrant NADH-oxidase”.
